From patent US4273771A, “Novel Δ^4,9 -gonadiene-21-ol-3,20-diones” (Roussel Uclaf, priority 1978, dated 1981)

How the values were obtained:
[1] = system: immature rabbits sensitized with estradiol; experiment: Clauberg test: proliferation of endometric lace; format: in vivo, rabbit; settings: for MacPhail units: subcutaneous, 5 days
Description: The progestomimetic activity was also determined by the Clauberg test in which groups of 3 immature rabbits were previously sensitized by subcutaneous administration of estradiol for 5 days at a daily dose of 5 μg. Two days after the last treatment, the compound A of Example 1 in solution in sesame oil containing 5% of benzyl alcohol was subcutaneously administered daily for 5 days and the rabbits were killed on the 6th day. The uterus was removed and the proliferation of endometric lace which is characteristic of progestomimetic activity was determined in MacPhail units.

[2] = target: T1, specific progesterone receptors (uterine cytosol) (Oryctolagus cuniculus, UniProt P06186); experiment: hormonal receptor method: displacement of tritiated Product R in rabbit uterine cytosol; format: binding; settings: for ARL (relative affinity of the test product): progesterone = 100
T1 construct: the uterus was removed and homogenized in a buffered solution; from tissue; host or cells: uterus cytosol (105,000 g supernatant) of immature estradiol-treated rabbits
T1 sequence (P06186 1-930): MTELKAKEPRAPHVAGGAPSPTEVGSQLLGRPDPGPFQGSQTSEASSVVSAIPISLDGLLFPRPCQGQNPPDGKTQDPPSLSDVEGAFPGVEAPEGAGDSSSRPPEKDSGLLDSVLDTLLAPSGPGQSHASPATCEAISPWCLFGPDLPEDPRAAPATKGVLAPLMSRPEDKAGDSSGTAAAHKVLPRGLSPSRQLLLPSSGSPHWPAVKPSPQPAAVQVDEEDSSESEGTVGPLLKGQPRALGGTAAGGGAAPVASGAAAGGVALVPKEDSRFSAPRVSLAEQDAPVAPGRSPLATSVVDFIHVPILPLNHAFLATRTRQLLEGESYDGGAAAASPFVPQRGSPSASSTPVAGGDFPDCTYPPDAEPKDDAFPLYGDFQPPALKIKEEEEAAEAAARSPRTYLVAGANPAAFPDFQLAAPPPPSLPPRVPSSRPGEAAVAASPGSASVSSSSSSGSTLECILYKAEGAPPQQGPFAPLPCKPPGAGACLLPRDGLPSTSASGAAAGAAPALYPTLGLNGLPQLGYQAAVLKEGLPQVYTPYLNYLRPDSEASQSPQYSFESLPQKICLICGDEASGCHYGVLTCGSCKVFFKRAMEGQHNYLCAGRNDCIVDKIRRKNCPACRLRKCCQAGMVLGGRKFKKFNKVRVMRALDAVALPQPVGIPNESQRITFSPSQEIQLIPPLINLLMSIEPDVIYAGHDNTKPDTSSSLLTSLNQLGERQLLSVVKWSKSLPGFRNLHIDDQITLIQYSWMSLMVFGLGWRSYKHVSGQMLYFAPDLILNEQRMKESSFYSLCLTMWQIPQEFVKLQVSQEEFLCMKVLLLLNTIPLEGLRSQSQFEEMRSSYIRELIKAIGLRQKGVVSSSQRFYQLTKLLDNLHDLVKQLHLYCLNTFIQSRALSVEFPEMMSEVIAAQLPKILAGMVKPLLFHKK
Description: The progestomimetic activity was determined for the product A of Example 1 by the hormonal receptor method of Raynaud et al [J. Ster. Biochem., Vol. 6 (1975), p. 615-622 and Physiology and Genetics of Reproduction, 1975, Part A, p. 143-160]. Immature rabbits received 25 μg of estradiol percutaneously and were sacrificed after 5 days and the uterus was removed and homogenized in a buffered solution of 10 mM of tromethamine, 0.25 M of saccharose and a pH of 7.4 was kept with hydrochloric acid. The homogenate was centrifuged at 105,000 g per hour and the surnageant or cytosol was adjusted to a solution of 1/50 (weight/volume). […] The radioactivity of the tritiated product R was determined after 2 hours and after 24 hours by the technique of adsorption on carbondextran (1.25%-0.625%). The plots were the curves of the right parallel of the axis of abscisses of ordinate [formula] wherein Bo is the maximum amount of tied tritiated product R measured in the incubation containing only tritiated product R and Bmin is the minimum amount of tied tritiated product R (non-specific) measured in the incubation containing tritiated product R and a large excess of cold product R (2500×10^-9 M) and the curves representing the percentages of tied tritiated product R B/Bo as a logarithmatic function of the concentrations of added cold product R.
The intersections of these I50 straight lines and the curves permit the determination of the values: CP--concentration of cold progesterone which inhibits by 50% the fixation of the tritiated product R and CX--concentration of test product which inhibits by 50% the fixation of tritiated product R. The relative affinity of the test product (ARL) was determined by the formula [formula] and the results are reported in Table I

immature female mice = experiment: antiestrogenic activity, uterus weight (method of Rubin and Dorfman et al); format: in vivo
Description: The estrogenic activity of the product A of Example 1 was also determined by the method of Rubin [Endocrinology, Vol. 49 (1951), p. 429] and Dorfman et al [Methods in Hormone Research, Vol. II (1962), p. 118] in which groups of 4 immature female mice 18 days old received once a day for 3 days a subcutaneous injection of estradiol only, only the test product or estradiol and the test product. In the last case, separate injections were used. The animals were killed on the 4th day and the uterus was removed, dissected and weighed. The test product was administered in a volume of 0.1 ml of sesame oil solution containing 5% of benzyl alcohol at a total dose of 0.27 μg of estradiol and the test compound was used at total doses of 0.3, 1.0, 3 and 10 μg.

[3] = total dose 0.3 μg + estradiol 0.27 μg
[4] = total dose 1 μg + estradiol 0.27 μg
[5] = total dose 3 μg + estradiol 0.27 μg
[6] = total dose 10 μg + estradiol 0.27 μg

SMILES: CC(O)C(=O)C1(C)CCC2C3CCC4=CC(=O)CCC4=C3CCC21C (single isomer, unassigned) [Product A of Example 1, 17α-methyl-17β-(2-hydroxy-1-oxopropyl)-Δ^4,9-estradiene-3-one]
- MacPhail units ([1]; 1 μg daily): 2.2 MacPhail units
- MacPhail units ([1]; 3 μg daily): 3.4 MacPhail units
- MacPhail units ([1]; 10 μg daily): 3.4 MacPhail units
- progestomimetic activity ([1]; result in words): very strong progestomimetic activity
- ARL (relative affinity of the test product) ([2]; 2 h incubation at 0° C.): 204
- ARL (relative affinity of the test product) ([2]; 24 h incubation at 0° C.): 688
- affinity for specific uterine reception of progesterone compared with progesterone ([2]; result in words): much greater affinity
- antiestrogenic activity against estradiol (immature female mice; dose of 1 μg, result in words): clear antiestrogenic activity
- Average Weight of uterus (immature female mice; test product only, total dose 0.3 μg): 14.6 mg
- Average Weight of uterus (immature female mice; test product only, total dose 1 μg): 13.0 mg
- Average Weight of uterus (immature female mice; test product only, total dose 3 μg): 17.1 mg
- Average Weight of uterus (immature female mice; test product only, total dose 10 μg): 15.8 mg
- Average Weight of uterus (immature female mice; [3]): 80.5 mg
- change of average uterus weight versus estradiol only (immature female mice; [3]): -19%
- Average Weight of uterus (immature female mice; [4]): 59.6 mg
- change of average uterus weight versus estradiol only (immature female mice; [4]): -39%
- Average Weight of uterus (immature female mice; [5]): 38.5 mg
- change of average uterus weight versus estradiol only (immature female mice; [5]): -61%
- Average Weight of uterus (immature female mice; [6]): 39.6 mg
- change of average uterus weight versus estradiol only (immature female mice; [6]): -60%

SMILES: C[C@]12CC[C@@H]3c4ccc(O)cc4CC[C@H]3[C@@H]1CC[C@@H]2O [Estradiol, reference compound]
- Average Weight of uterus (immature female mice; estradiol only, total dose 0.27 μg, subcutaneous, 3 days): 99.3 mg
